Measured values: US8557290B2, “Multifunction nanoconjugates for imaging applications and targeted treatment” (priority 2008, dated 2013)

What was measured:
MCF-7 cells [1] = assay: Intracellular Gd by ICP-MS of agarose phantoms with embedded cells; type: cell-based, human; conditions: 48 hours after transfection
Description: Sections of agarose phantoms with embedded cells were analyzed by ICP-MS.

[2] = tested on: MCF-7/WS8 breast cancer cells; assay: MRI T1 and signal intensity of MCF-7 cells transfected with SuperFect reagent, in agarose phantoms; type: cell-based, human; conditions: for T1 value, Equation method / T1 value, Null point method / Signal intensity: SuperFect; for T1 value, Equation method / T1 value, Null point method: 48 hours after treatment, 1.5 T; for Signal intensity: T1-weighted
Description: For transfection experiments MCF-7/W8/WS8 breast cancer cells (American Type Culture Collection, ATCC, Manassas, Va.) and PC3-M prostate cancer cells (ATCC) were grown in a 5% CO2 humidified atmosphere in RPMI1640 cell culture medium (this and all other standard cell culture supplements were from Invitrogen/Gibco, Carlsbad, Calif.) supplemented with 10% fetal bovine serum and antibiotic-antimycotic. MCF-7/WS8 medium also contained insulin at a concentration of 10 μg/mL (Sigma, St. Louis, Mo.), 200 mM 1-glutamine, and 10 mM nonessential amino acids; PC3-M medium also contained 25 μg/mL G418 and 2.4 mg/mL HEPES. Nearly confluent cells were serum-starved for 16 to 20 hours before transfection or treatment.
For SuperFect transfection, 60 μL of SuperFect reagent (Qiagen, Valencia, Calif.) and 300 μL of any one of the following: (1) Gd contrast agent, (2) TiO2 nanoparticles, or (3) TiO2-DNA-Gd nanoconjugates were used; these mixtures were applied onto 16 million cells each. Final concentrations of these agents in the medium were (1) 144 μM Gd; (2) 0.12 μM TiO2 nanoparticles, or (3) TiO2-DNA-Gd nanoconjugates wherein TiO2 nanoparticles were 0.12 μM and Gd was 75.6 μM in concentration. Media were exchanged for fresh complete cell media 24 hours later and, after an additional 24-hour incubation, cells were harvested for imaging.
In all cases, cells harvested for MRI were embedded in 300 μL agarose phantoms. Once the MRI was completed, these phantoms were used for ICP-MS and/or preparation of paraffin-embedded samples for sectioning and imaging by x-ray fluorescence microscopy.
To prepare samples for MRI, 150 μL of Hank's balanced buffered salt solution (HBBS; Invitrogen/Gibco) containing cells were mixed with 2% agarose melted in 150 μL of HBBS. Cells in agarose solidified as a plug and were transferred into tubes, placed in a water bath, and imaged using a 1.5 T Siemens Sonata system (Erlangen, Germany) with a four-channel head coil for signal reception and body coil for excitation. T 1 of each sample was measured using an inversion recovery sequence with repetition time (TR)=4000 ms and inversion times of 50, 200, 500, 800, 1000, 1200, 1500, and 2000 ms. Other scan parameters were: field of view=125×200 mm^2; acquisition matrix=115×192; readout bandwidth=965 Hz/pixel; slice thickness=5 mm; all images were acquired in the coronal orientation.
For data analysis the raw data of signal intensity versus TI were fit to the equation: Signal intensity=abs(A*(1−2*exp(−R1*TI))+C, where R1=1/T1. Variables A and C are free parameters of the model. The confidence interval was determined statistically; R2 indicates goodness of fit. The TI corresponding to the lowest signal intensity (TInull) is an indication of the T1 value; this relationship can be estimated by the equation: T1=TInull/ln(2). T1 values determined using the results of the equation fit and the null point relationship are listed in Table 2. Signal intensity, a quantitative metric of relative brightness, was measured with a circular region-of-interest within each sample.

PC-3M cells = conditions: human, 24 h, 20 mM
Description: All cell culture reagents were purchased from Mediatech Inc. unless otherwise specified. […] Both cell lines were maintained at 37° C. with 5% CO2 in RPMI 1640 media supplemented with fetal bovine serum (10%), L-glutamine (2 mM), HEPES (10 mM), penicillin (100 I.U./ml), streptomycin (100 μg/ml). […] PC-3M cells were further supplemented with G418 sulfate (0.15 mg/ml). For treatment, cells were washed with phosphate buffered saline solution (PBS) and placed in serum free RPMI 1640 for 1-2 hours. Then cells were treated with TiO2 nanoparticles (333 nM) coated with or without ARS (60 μM), and/or ODN (160 μM) for one hour. […]
After treatment and washing, cells were trypsinized, collected in FBS supplemented medium, and brought to a single cell suspension. […] Samples were then taken to the Northwestern University Flow Cytometry Core Facility of the Robert H. Lurie Cancer Center to be analyzed or sorted on the DakoCytomation MoFlo Flow Cytometer (Dako). […]
Labeling the nanoparticles, however, allowed one to screen the treated cells simultaneously for nanoparticle uptake (by ARS fluorescence) and for viability (by use of fluorescent cell-impermeable dye). […] Flow cytometry was then used to quantify both the extent of nanoparticle uptake within the cell population, and the cells' ability to exclude cell-impermeable DAPI as an indicator of cell viability.

[3] = tested on: plasmid DNA (pKaede-MN1 plasmid with R18 insert); assay: Light-induced plasmid DNA cleavage, agarose gel electrophoresis; type: biochemical
Description: Reactions containing plasmid DNA and either buffer, alizarin red s, TiO2 nanoparticles, or alizarin red s-coated TiO2 nanoparticles were incubated at 37° C. for 10 minutes and either kept in the dark or illuminated with a 75 watt halogen bulb for 5-10 minutes (FIG. 36). Samples were then run via electrophoresis at 50 volts for 4 hours on a 1.25% agarose gel and scanned on a Typhoon Trio multi-mode imager to visualize the different resulting configurations of plasmid DNA (FIG. 36). […] To confirm the identities of plasmid configurations resulting from excitation of alizarin red s-coated TiO2 nanoparticles, supercoiled, nicked, and linearized plasmid DNA bands were excised and purified from the agarose gel.
The role of the latter was investigated by expanding upon previous experiments and using TiO2 nanoparticles that were coated with glycidyl isopropyl ether (GIE), which reduces interaction between the nanoparticle surface and its surrounding environment (Paunesku et al Nat. Mater. 2003, 2, 343-346; Rajh et al Nano Lett. 2004, 4, 1017-1023). Plasmid samples containing either GIE, GIE and alizarin red s, or GIE-alizarin red s-coated TiO2 nanoparticles were illuminated for 5 minutes with 150W halogen bulb (FIG. 39).
The effect of conjugating different peptide nucleic acid sequences to GIE-alizarin-coated TiO2 nanoparticles on DNA cleavage was investigated (FIG. 40A).

MCF-7 cells [4] = assay: Intracellular localization by confocal fluorescent microscopy; conditions: 1 hour treatment
in vitro = conditions: rat

PGA-1,6-hexanediamine-(Gd-DOTA)-dopamine conjugate
intracellular concentration of Gd (average) (MCF-7 cells [1]; 5×10^6 cells, ICP-MS): 0.75 µM | Gd retention relative to Gd in cell media (MCF-7 cells [1]): 0.5% | T1 value, Equation method ([2]; 5 × 10^5 cells): 1799 | T1 value, Null point method ([2]; 5 × 10^5 cells): 1436 | Signal intensity ([2]; 5 × 10^5 cells, inversion time 1000 ms): 33 | T1 value, Equation method ([2]; 5 × 10^6 cells): 1625 | T1 value, Null point method ([2]; 5 × 10^6 cells): 1235 | Signal intensity ([2]; 5 × 10^6 cells, inversion time 1000 ms): 71 | T1-weighted signal enhancement of treated cells ([2]; T1-weighted images, inversion time 1000 ms, 24 or 48 hours after treatment): no T1-weighted enhancement

OO [H2O2, hydrogen peroxide]
reduction in viability (PC-3M cells): approximately 54%

CC(C)OCC1CO1 (centres unmarked) [GIE, glycidyl isopropyl ether]
plasmid DNA cleavage upon light exposure ([3]; 150W halogen bulb, 5 minutes, three replicate experiments): not cleaved

O=C1c2ccccc2C(=O)c2c1cc(S(=O)(=O)O)c(O)c2O [ARS, 1,2 dihydroxyanthraquinone-3-sulfonate]
plasmid DNA cleavage upon light exposure ([3]; 75 watt halogen bulb, 5-10 minutes): increase in the presence of nicked plasmid

COc1cccc2c1C(=O)c1c(O)c3c(c(O)c1C2=O)C[C@@](O)(C(=O)CO)C[C@@H]3O[C@H]1C[C@H](N)[C@H](O)[C@H](C)O1 [free doxorubicin, Doxorubicin]
subcellular localization (MCF-7 cells [4]): predominantly located in the cell nucleus | viability at 4 days, 1.72 μM (in vitro): 79.6%
